Test results as given in US7517874B2 (priority 2007, dated 2009).
Like-named read-outs stand apart in the source and are kept apart here.

Experiments:
[1] = target: human CB1 receptor (hCB1) (Homo sapiens, UniProt P21554); assay: cell-based; assay type: cell-based; conditions: for +/− HCB1: agonist or inverse agonist at hCB1
Outline: (§1)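 First, cells in IBMX-containing HEPES-buffered HBSS are raised to elevated cAMP with 2-8 μM NKH-477 for 30 min. Data are normalised to the forskolin and forskolin + 1 μM CP55,940 controls.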

rat CB2 receptor (rCB2) = target: T1, rat CB2 receptor (rCB2) (Rattus norvegicus, UniProt Q9QZN9); assay: cell-based; assay type: cell-based; conditions: for +/− RCB2: agonist or inverse agonist at rCB2
T1 sequence (Q9QZN9 1-360): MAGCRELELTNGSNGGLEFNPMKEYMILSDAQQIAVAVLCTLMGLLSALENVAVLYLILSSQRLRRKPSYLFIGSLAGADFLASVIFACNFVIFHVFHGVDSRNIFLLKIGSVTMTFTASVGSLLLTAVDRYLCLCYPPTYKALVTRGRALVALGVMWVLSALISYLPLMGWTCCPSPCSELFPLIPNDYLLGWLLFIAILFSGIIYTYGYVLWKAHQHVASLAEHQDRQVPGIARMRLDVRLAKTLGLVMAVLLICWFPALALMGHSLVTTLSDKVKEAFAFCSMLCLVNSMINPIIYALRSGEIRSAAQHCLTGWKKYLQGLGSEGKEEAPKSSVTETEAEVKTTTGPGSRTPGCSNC
Outline: as §1

Chain of human CB1 receptor (hCB1) (P21554 whole entry): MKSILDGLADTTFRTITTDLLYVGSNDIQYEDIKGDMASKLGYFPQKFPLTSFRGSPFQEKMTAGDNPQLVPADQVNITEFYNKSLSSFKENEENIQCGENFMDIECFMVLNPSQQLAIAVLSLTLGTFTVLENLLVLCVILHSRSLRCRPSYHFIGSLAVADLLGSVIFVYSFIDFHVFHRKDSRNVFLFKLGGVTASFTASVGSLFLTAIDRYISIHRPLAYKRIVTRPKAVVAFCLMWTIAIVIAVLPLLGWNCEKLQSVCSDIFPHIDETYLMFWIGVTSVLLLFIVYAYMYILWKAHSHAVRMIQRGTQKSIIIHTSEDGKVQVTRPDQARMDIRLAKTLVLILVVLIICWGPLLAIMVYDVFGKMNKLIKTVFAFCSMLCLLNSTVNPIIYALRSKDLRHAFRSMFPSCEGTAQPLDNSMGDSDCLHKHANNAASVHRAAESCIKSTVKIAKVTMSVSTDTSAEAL

CNC(=O)[C@H](CC(C)(C)C)NC(=O)c1nc(-c2ccc(C(F)(F)F)cc2F)n2c1CN(C)CCC2 [Compound 551, (S)-N-(4,4-dimethyl-1-(methylamino)-1-oxopentan-2-yl)-3-(2-fluoro-4-(trifluoromethyl)phenyl)-8-methyl-6,7,8,9-tetrahydro-5H-imidazo[1,5-a][1,4]diazepine-1-carboxamide]
+/− HCB1 [1]: +
+/− RCB2 (rat CB2 receptor (rCB2)): +

CCCN1CCn2c(-c3ccccc3)nc(C(=O)Nc3ccccc3)c2C1 [Compound 154, N,3-diphenyl-7-propyl-5,6,7,8-tetrahydroimidazo[1,5-a]pyrazine-1-carboxamide]
EC50 [1]: > 10000 nM
+/− RCB2 (rat CB2 receptor (rCB2)): −

CN1CCn2c(-c3ccc(Cl)cc3F)nc(C(=O)Nc3ccc(S(=O)(=O)N4CCOCC4)cc3)c2C1 [Compound 219]
EC50 ([1]; groups >100 nM-10 μM and >10 μM, cAMP, CHO-K1 hCB1, read-out: EC50 HCB1): > 10000 nM
+/− RCB2 (rat CB2 receptor (rCB2)): −

CNC(=O)[C@@H](NC(=O)c1nc(-c2ccccc2)n2c1CN(C)CC2)C(C)(C)C [Compound 48, (S)-N-(3,3-dimethyl-1-(methylamino)-1-oxobutan-2-yl)-7-methyl-3-phenyl-5,6,7,8-tetrahydroimidazo[1,5-a]pyrazine-1-carboxamide]
EC50 [1]: > 10000 nM
+/− RCB2 (rat CB2 receptor (rCB2)): +

CNC(=O)[C@@H](NC(=O)c1nc(-c2ccsc2)n2c1CN(Cc1cncnc1)CC2)C(C)(C)C [Compound 76, (S)-N-(3,3-dimethyl-1-(methylamino)-1-oxobutan-2-yl)-7-(pyrimidin-5-ylmethyl)-3-(thiophen-3-yl)-5,6,7,8-tetrahydroimidazo[1,5-a]pyrazine-1-carboxamide]
EC50 [1]: > 10000 nM
+/− RCB2 (rat CB2 receptor (rCB2)): +

CNC(=O)[C@@H](NC(=O)c1nc(C2=CCCC2)n2c1CN(C)CC2)C(C)(C)C [Compound 238, (S)-3-cyclopentenyl-N-(3,3-dimethyl-1-(methylamino)-1-oxobutan-2-yl)-7-methyl-5,6,7,8-tetrahydroimidazo[1,5-a]pyrazine-1-carboxamide]
+/− HCB1 [1]: +
EC50 (rat CB2 receptor (rCB2)): > 10 µM

CNC(=O)[C@@H](NC(=O)c1nc(-c2cccc(F)c2F)n2c1CN(C)CCC2)C(C)(C)C [Compound 369, (S)-3-(2,3-difluorophenyl)-N-(3,3-dimethyl-1-(methylamino)-1-oxobutan-2-yl)-8-methyl-6,7,8,9-tetrahydro-5H-imidazo[1,5-a][1,4]diazepine-1-carboxamide]
EC50 [1]: > 10000 nM
+/− RCB2 (rat CB2 receptor (rCB2)): +

CNC(=O)[C@H](CC(C)(C)C)NC(=O)c1nc(-c2cc(Cl)ccc2F)n2c1CN(C)CCC2 [Compound 545, (S)-3-(5-chloro-2-fluorophenyl)-N-(4,4-dimethyl-1-(methylamino)-1-oxopentan-2-yl)-8-methyl-6,7,8,9-tetrahydro-5H-imidazo[1,5-a][1,4]diazepine-1-carboxamide]
+/− HCB1 [1]: +
+/− RCB2 (rat CB2 receptor (rCB2)): +

Cc1nnc([C@@H](NC(=O)c2nc(-c3ccccc3)n3c2CN(CC(C)C)CC3)C(C)(C)C)o1 [Compound 202, (S)-N-(2,2-dimethyl-1-(5-methyl-1,3,4-oxadiazol-2-yl)propyl)-7-isobutyl-3-phenyl-5,6,7,8-tetrahydroimidazo[1,5-a]pyrazine-1-carboxamide]
EC50 [1]: > 10000 nM
+/− RCB2 (rat CB2 receptor (rCB2)): −

CNC(=O)[C@@H](NC(=O)c1nc(C2CCCCCC2)n2c1CN(C)CCC2)C(C)(C)C [Compound 498, (S)-3-cycloheptyl-N-(3,3-dimethyl-1-(methylamino)-1-oxobutan-2-yl)-8-methyl-6,7,8,9-tetrahydro-5H-imidazo[1,5-a][1,4]diazepine-1-carboxamide]
+/− HCB1 [1]: +
+/− RCB2 (rat CB2 receptor (rCB2)): +
